Experimental data as given in patent US12377104B1, “Methods for treating a fatty liver disease” (Madrigal Pharmaceuticals, Inc., priority 2024, dated 2025).
“And” between values parts separate entries of the source, which are not always exact repeats. Equal entries are not always repeated.

System: adults with biopsy-confirmed NASH
Assay: MAESTRO-NASH: lipids, lipoproteins and lipid particles
Type: in vivo, human
Conditions: 80 mg; for ApoB, Least Squares Mean % CFB / ApoB, Least Squares Mean % CFB Difference from PBO / LDL-C, Least Squares Mean % CFB / LDL-C, Least Squares Mean % CFB Difference from PBO: baseline LDL-C >100 mg/dL; for Lp(a), LS mean % CFB / Lp(a), LS mean % CFB difference from PBO: baseline Lp(a) >10 nmol/L; for Triglycerides, LS mean % CFB / Triglycerides, LS mean % CFB difference from PBO: baseline triglycerides >150 mg/dL
Method: Within the study, we provided analyses based on an analysis of covariance (ANCOVA) model after having performed single imputation for LDL-C as described in the statistical analysis plan (SAP). The ANCOVA model estimated least-squares means using treatment and baseline LDL-C as covariate.
To this end, the Week 24 LDL-C assessment and assessments at any visit in which LDL-C is measured (Weeks 4, 12, 16, 20, 24, 28, 32, 36, 40, 44, 48, and 52) that has been impacted by kit shortage at the prior visit (unavailability of […] (IP) during the 4 weeks preceding the visit due to the COVID-19 pandemic as indicated on the electronic case report form (eCRF)), were considered missing and were imputed from an unaffected assessment at surrounding visits or using data from subjects unaffected by this intercurrent event as described in Section 11.2 of the SAP. In summary, single imputation utilizing adjacent and valid […] measurements were imputed.
For missing lipid data that are still missing after the single imputation approach described, those missing lipid data were imputed using the non-missing lipid values (including the singly imputed data) based on missing at random (MAR)-based (MI). When applying the MAR-based […], data were imputed separately by randomized treatment group and baseline stratification factors.

CC(C)c1cc(Oc2c(Cl)cc(-n3nc(C#N)c(=O)[nH]c3=O)cc2Cl)n[nH]c1=O [Resmetirom, 2-(3,5-dichloro-4-((5-isopropyl-6-oxo-1,6-dihydropyridazin-3-yl)oxy)phenyl)-3,5-dioxo-2,3,4,5-tetrahydro-1,2,4-triazine-6-carbonitrile]
Apolipoprotein B level, difference from placebo (wk 24): −17.2 percentage points | Apolipoprotein B level, least-squares mean percent change from baseline (wk 24): −16.8 ± 1.3% | LDL cholesterol level, difference from placebo (wk 24): −13.7 percentage points | LDL cholesterol level, least-squares mean percent change from baseline (wk 24): −13.6% and −13.6 ± 1.7% | Lipoprotein(a) level, difference from placebo (wk 24): −29.5 percentage points | Triglyceride level, difference from placebo (wk 24): −20.1 percentage points | Lipoprotein(a) level, least-squares mean percent change from baseline (wk 24, baseline lipoprotein(a) >10 nmol per liter): −30.4 ± 3.8% | Triglyceride level, least-squares mean percent change from baseline (wk 24, baseline triglyceride >150 mg per deciliter): −22.7 ± 4.0% | ApoB, LS mean % CFB (Week 24): −16.8% | ApoB, LS mean % CFB difference from PBO (Week 24): −17.2% | ApoCIII, Least Squares Mean % CFB (Week 24): −10.6% | ApoCIII, Least Squares Mean % CFB Difference from PBO (Week 24): −18.7% | HDL-C, Least Squares Mean % CFB (Week 24): 2.7% | HDL-C, Least Squares Mean % CFB Difference from PBO (Week 24): 0.98% | LDL-C, LS mean % CFB (Week 24): −13.6% | LDL-C, LS mean % CFB difference from PBO (Week 24): −13.7% | Non-HDL-C, Least Squares Mean % CFB (Week 24): −15.2% | Non-HDL-C, Least Squares Mean % CFB Difference from PBO (Week 24): −15.4% | ApoB, Least Squares Mean % CFB (Week 24): −21.9% | ApoB, Least Squares Mean % CFB Difference from PBO (Week 24): −18.1% | LDL-C, Least Squares Mean % CFB (Week 24): −21.3% | LDL-C, Least Squares Mean % CFB Difference from PBO (Week 24): −15.4% | ApoCIII, Least Squares Mean % CFB (Week 52): −10.0% | ApoCIII, Least Squares Mean % CFB Difference from PBO (Week 52): −19.8% | HDL particle size, Least Squares Mean % CFB (Week 52): 0.90% | HDL particle size, Least Squares Mean % CFB Difference from PBO (Week 52): 0.60% | HDL particles, Least Squares Mean % CFB (Week 52): 5.2% | HDL particles, Least Squares Mean % CFB Difference from PBO (Week 52): 3.6% | HDL-C, Least Squares Mean % CFB (Week 52): 4.7% | HDL-C, Least Squares Mean % CFB Difference from PBO (Week 52): 2.1% | LDL particle size, Least Squares Mean % CFB (Week 52): −0.32% | LDL particle size, Least Squares Mean % CFB Difference from PBO (Week 52): −0.36% | LDL particles, Least Squares Mean % CFB (Week 52): −16.8% | LDL particles, Least Squares Mean % CFB Difference from PBO (Week 52): −16.1% | Large HDL particles, Least Squares Mean % CFB (Week 52): 12.3% | Large HDL particles, Least Squares Mean % CFB Difference from PBO (Week 52): 0.06% | Large LDL particles, Least Squares Mean % CFB (Week 52): 47.8% | Large LDL particles, Least Squares Mean % CFB Difference from PBO (Week 52): −38.6% | Large VLDL and chylomicron particles, Least Squares Mean % CFB (Week 52): −5.7% | Large VLDL and chylomicron particles, Least Squares Mean % CFB Difference from PBO (Week 52): −16.8% | Medium HDL particles, Least Squares Mean % CFB (Week 52): 88.2% | Medium HDL particles, Least Squares Mean % CFB Difference from PBO (Week 52): 23.1% | Medium VLDL particles, Least Squares Mean % CFB (Week 52): −18.7% | Medium VLDL particles, Least Squares Mean % CFB Difference from PBO (Week 52): −134.5% | Non-HDL-C, Least Squares Mean % CFB (Week 52): −15.7% | Non-HDL-C, Least Squares Mean % CFB Difference from PBO (Week 52): −15.3% | Small LDL particles, Least Squares Mean % CFB (Week 52): −3.3% | Small LDL particles, Least Squares Mean % CFB Difference from PBO (Week 52): −25.0% | Small VLDL particles, Least Squares Mean % CFB (Week 52): 62.9% | Small VLDL particles, Least Squares Mean % CFB Difference from PBO (Week 52): -21.3% | VLDL and chylomicron particles, Least Squares Mean % CFB (Week 52): −11.2% | VLDL and chylomicron particles, Least Squares Mean % CFB Difference from PBO (Week 52): −19.4% | VLDL and chylomicron triglycerides, Least Squares Mean % CFB (Week 52): −14.7% | VLDL and chylomicron triglycerides, Least Squares Mean % CFB Difference from PBO (Week 52): −19.6% | VLDL particle size, Least Squares Mean % CFB (Week 52): 1.9% | VLDL particle size, Least Squares Mean % CFB Difference from PBO (Week 52): −0.05% | ApoB, Least Squares Mean % CFB (Week 52): −25.0% | ApoB, Least Squares Mean % CFB Difference from PBO (Week 52): −18.5% | LDL-C, Least Squares Mean % CFB (Week 52): −25.3% | LDL-C, Least Squares Mean % CFB Difference from PBO (Week 52): −15.7% | Lp(a), LS mean % CFB (week 24): 30.4% | Lp(a), LS mean % CFB difference from PBO (week 24): -29.5% | Triglycerides, LS mean % CFB (week 24): -22.7% | Triglycerides, LS mean % CFB difference from PBO (week 24): −20.1% | ApoB, LS mean % CFB (week 52): -16.2% | ApoB, LS mean % CFB difference from PBO (week 52): −16.8% | LDL-C, LS mean % CFB (week 52): -13.7% | LDL-C, LS mean % CFB difference from PBO (week 52): −13.3% | Lp(a), LS mean % CFB (week 52): −34.0% | Lp(a), LS mean % CFB difference from PBO (week 52): −29.5% | Triglycerides, LS mean % CFB (week 52): −22.5% | Triglycerides, LS mean % CFB difference from PBO (week 52): −19.0%
